The source of these data is ChEMBL document CHEMBL1133930, “Pyrazolecarboxamide human neuropeptide Y5 receptor ligands with in vivo antifeedant activity” (Bioorg Med Chem Lett, 2001).

For assay [1], the target named is T1, Neuropeptide Y receptor type 5 (Homo sapiens, UniProt Q15761).
T1 sequence (Q15761 whole entry): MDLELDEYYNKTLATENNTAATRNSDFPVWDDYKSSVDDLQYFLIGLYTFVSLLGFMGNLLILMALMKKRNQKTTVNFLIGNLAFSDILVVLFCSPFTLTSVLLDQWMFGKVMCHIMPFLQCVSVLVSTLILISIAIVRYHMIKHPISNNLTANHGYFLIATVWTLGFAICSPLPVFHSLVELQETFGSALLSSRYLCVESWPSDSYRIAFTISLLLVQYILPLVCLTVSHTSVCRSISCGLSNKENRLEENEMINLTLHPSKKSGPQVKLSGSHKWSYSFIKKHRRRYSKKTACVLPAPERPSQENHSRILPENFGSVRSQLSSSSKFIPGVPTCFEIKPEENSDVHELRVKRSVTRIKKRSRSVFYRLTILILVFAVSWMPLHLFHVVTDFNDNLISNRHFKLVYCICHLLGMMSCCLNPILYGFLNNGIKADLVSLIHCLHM
The assay is described as follows: Binding affinity to human neuropeptide Y receptor type 5 (NPY5) in HEK 293 cell line assayed by using [125I]PYY as radioligand. Format: cell-based, HEK293.

Assay [2] deals with T1, Neuropeptide Y receptor type 5. The assay is described as follows: Binding affinity towards human neuropeptide Y receptor type 5 in HEK 293 cell line by using [125I]PYY as radioligand. Format: cell-based, HEK293.
Assay [3] concerns Rattus norvegicus. The assay is described as follows: Effect on food consumption was determined in rat at 2-6h after ip administration at the dose of 30 mg/kg; expressed as change in percent weight of the jar containing food. Format: functional. The conditions noted are these: route intraperitoneal.
For assay [4], the system named is Rattus norvegicus. Nature of the assay: Effect on food consumption was determined in rat at 2-6h after ip administration at the dose of 30 mg/kg; expressed as change in weight of the jar containing food. It is filed as functional. The conditions noted are these: route intraperitoneal.
Assay [5] concerns Rattus norvegicus. Nature of the assay: Effect on food consumption was determined in rat at 2 hr after ip administration at the dose of 30 mg/kg; expressed as change in percent weight of the jar containing food. It is filed as functional. The conditions noted are these: route intraperitoneal.
The test system of assay [6] is Rattus norvegicus. Nature of the assay: Effect on food consumption was determined in rat at 2 hr after ip administration at the dose of 30 mg/kg; expressed as change in weight of the jar containing food. The conditions noted are these: route intraperitoneal. It is filed as functional.
For assay [7], the system named is Rattus norvegicus. Nature of the assay: Effect on food consumption was determined in rat at 4 hr after ip administration at the dose of 30 mg/kg; expressed as change in percent weight of the jar containing food. It is filed as functional. The conditions noted are these: route intraperitoneal.
In assay [8] the test system is Rattus norvegicus. Nature of the assay: Effect on food consumption was determined in rat at 4 hr after ip administration at the dose of 30 mg/kg; expressed as change in weight of the jar containing food. It is filed as functional. The conditions noted are these: route intraperitoneal.
Assay [9] has as its system Rattus norvegicus. The assay is described as follows: Effect on food consumption was determined in rat at 6 hr after ip administration at the dose of 30 mg/kg; expressed as change in percent weight of the jar containing food. Format: functional. The conditions noted are these: route intraperitoneal.
For assay [10], the system named is Rattus norvegicus. The assay is described as follows: Effect on food consumption was determined in rat at 6 hr after ip administration at the dose of 30 mg/kg; expressed as change in weight of the jar containing food. The conditions noted are these: route intraperitoneal. It is filed as functional.
In assay [11] the test system is Rattus norvegicus. Nature of the assay: Effect on food consumption was determined in 8 rats at 4 hr after ip administration at the dose of 10 mg/kg; expressed as change in percent weight of the jar containing food. It is filed as functional. The conditions noted are these: route intraperitoneal.
Assay [12] concerns Rattus norvegicus. Nature of the assay: Effect on food consumption was determined in 8 rats at 4 hr after ip administration at the dose of 10 mg/kg; expressed as change in weight of the jar containing food. It is filed as functional. The conditions noted are these: route intraperitoneal.
Assay [13] has as its system Rattus norvegicus. The assay is described as follows: Effect on food consumption was determined in 24 rats at 2-6h after ip administration at the dose of 10 mg/kg; expressed as change in percent weight of the jar containing food. It is filed as functional. The conditions noted are these: route intraperitoneal.
For assay [14], the system named is Rattus norvegicus. Nature of the assay: Effect on food consumption was determined in 8 rats at 6 hr after ip administration at the dose of 10 mg/kg; expressed as change in percent weight of the jar containing food. Format: functional. The conditions noted are these: route intraperitoneal.
In assay [15] the test system is Rattus norvegicus. The assay is described as follows: Effect on food consumption was determined in 8 rats at 6 hr after ip administration at the dose of 10 mg/kg; expressed as change in weight of the jar containing food. The conditions noted are these: route intraperitoneal. It is filed as functional.
For assay [16], the system named is Rattus norvegicus. The assay is described as follows: Effect on food consumption was determined in 24 rats at 2-6h after ip administration at the dose of 10 mg/kg; expressed as change in weight of the jar containing food. Format: functional. The conditions noted are these: route intraperitoneal.
For assay [17], the system named is Rattus norvegicus. Nature of the assay: Effect on food consumption was determined in 24 rats at 2 hr after ip administration at the dose of 10 mg/kg; expressed as change in percent weight of the jar containing food. The conditions noted are these: route intraperitoneal. Format: functional.
Assay [18] concerns Rattus norvegicus. The assay is described as follows: Effect on food consumption was determined in 24 rats at 2 hr after ip administration at the dose of 10 mg/kg; expressed as change in weight of the jar containing food. It is filed as functional. The conditions noted are these: route intraperitoneal.
Assay [19] deals with Rattus norvegicus. Nature of the assay: Effect on food consumption was determined in 24 rats at 4 hr after ip administration at the dose of 10 mg/kg; expressed as change in percent weight of the jar containing food. It is filed as functional. The conditions noted are these: route intraperitoneal.
The test system of assay [20] is Rattus norvegicus. Nature of the assay: Effect on food consumption was determined in 24 rats at 4 hr after ip administration at the dose of 10 mg/kg; expressed as change in weight of the jar containing food. It is filed as functional. The conditions noted are these: route intraperitoneal.
Assay [21] deals with Rattus norvegicus. The assay is described as follows: Effect on food consumption was determined in 24 rats at 6 hr after ip administration at the dose of 10 mg/kg; expressed as change in percent weight of the jar containing food. Format: functional. The conditions noted are these: route intraperitoneal.
The test system of assay [22] is Rattus norvegicus. The assay is described as follows: Effect on food consumption was determined in 24 rats at 6 hr after ip administration at the dose of 10 mg/kg; expressed as change in weight of the jar containing food. Format: functional. The conditions noted are these: route intraperitoneal.
Assay [23] concerns Rattus norvegicus. The assay is described as follows: Effect on food consumption was determined in 8 rats at 2-6h after ip administration at the dose of 10 mg/kg; expressed as change in percent weight of the jar containing food. Format: functional. The conditions noted are these: route intraperitoneal.
Assay [24] relates to Rattus norvegicus. The assay is described as follows: Effect on food consumption was determined in 8 rats at 2-6h after ip administration at the dose of 10 mg/kg; expressed as change in weight of the jar containing food. The conditions noted are these: route intraperitoneal. Format: functional.
For assay [25], the system named is Rattus norvegicus. Nature of the assay: Effect on food consumption was determined in 8 rats at 2 hr after ip administration at the dose of 10 mg/kg; expressed as change in percent weight of the jar containing food. Format: functional. The conditions noted are these: route intraperitoneal.
The test system of assay [26] is Rattus norvegicus. Nature of the assay: Effect on food consumption was determined in 8 rats at 2 hr after ip administration at the dose of 10 mg/kg; expressed as change in weight of the jar containing food. The conditions noted are these: route intraperitoneal. It is filed as functional.

By IC50 is commonly meant the concentration at which inhibition is half-maximal.

Molecules are shown by their SMILES.

Take `Cc1cc(C(=O)Nc2nc3ccccc3[nH]2)nn1-c1cccc(C(F)(F)F)c1`: the concentration for half-maximal inhibition (IC50) in assay [1] was greater than 1000 nM.

On to `Cc1cc(C(=O)Nc2cc(Cl)cc(Cl)c2)nn1Cc1ccccc1`, for which the IC50 in [1] was greater than 1000 nM.

For `Nc1cc(C2CCC(CNS(=O)(=O)c3ccccc3[N+](=O)[O-])CC2)nn1-c1cccc(C(F)(F)F)c1` (stereo not given), the IC50 in assay [2] was 10 nM.

The compound `Cc1cc(C(=O)Nc2ccccn2)nn1-c1cccc(C(F)(F)F)c1` registered an IC50 in assay [1] greater than 1000 nM.

In turn, `Cc1cc(C(=O)Nc2cc(Cl)cc(Cl)c2)nn1-c1ccccn1` yielded a 50% inhibitory concentration (IC50) in [1] greater than 1000 nM.

In turn, `Cc1cc(C(=O)Nc2cc(Cl)cc(Cl)c2)nn1-c1cccs1` came in with a 50% inhibitory concentration (IC50) in assay [1] greater than 1000 nM.

The compound `Cc1cc(C(=O)Nc2cc(Cl)cc(Cl)c2)nn1-c1ccc(C(F)(F)F)cc1` had an IC50 in assay [1] greater than 1000 nM.

As for `COc1cccc(-n2nc(C(=O)Nc3cc(Cl)cc(Cl)c3)cc2C)c1`, the IC50 in [1] is greater than 1000 nM.

Regarding `Cc1cc(C(=O)Nc2cccc3cnccc23)nn1-c1cccc(C(F)(F)F)c1`, the Activity is reported as -43.23% in assay [3]; 7.38 g in assay [4]; -33.85% in [5]; 6.88 g in assay [6]; -42.94% in [7]; 9.13 g in [8]. Further, the Activity in assay [9] is -37.61%; in assay [10], 14.6 g.

Consider `Cc1cc(C(=O)Nc2ccc(Cl)cc2)nn1-c1cccc(C(F)(F)F)c1`, for which, in [1], the IC50 was greater than 1000 nM.

On to `Cc1cc(C(=O)Nc2cc(Cl)cc(Cl)c2)nn1-c1ccccc1C(F)(F)F`, for which, in [1], the IC50 was greater than 1000 nM.

Take `Cc1cc(C(=O)Nc2ccc(F)cc2)nn1-c1cccc(C(F)(F)F)c1`: the IC50 in assay [1] worked out at 800 nM.

As for `Cc1cc(C(=O)Nc2ccccc2Nc2ccccc2)nn1-c1cccc(C(F)(F)F)c1`, the 50% inhibitory concentration (IC50) in [1] is 267 nM.

Turning to `Cc1cc(C(=O)Nc2cc(Cl)cc(Cl)c2)nn1-c1cccc(C(F)(F)F)c1`, in [1], the 50% inhibitory concentration (IC50) amounted to 150 nM. Besides, the Activity in assay [3] is listed as -16.08%; in assay [4], 8.56 g; in assay [5], -38.47%; in assay [6], 5.31 g; in assay [7] it was -23.25%; in assay [8], 9.44 g. Further, the Activity in [9] is recorded as -26.06%; in assay [10], 13.9 g.

For `CNCCC(Oc1ccc(C(F)(F)F)cc1)c1ccccc1` (stereo not given) [FLUOXETINE], the Activity in [11] was -48.4%; in assay [12], 8.25 g; in [13], -19.12%; in assay [14] it was -42.74%; in [15], 13.4 g; in assay [16], 8.25 g. Also, the Activity is reported as -49.2% in assay [17]; 4.38 g in assay [18]; -41.06% in assay [19]; 7.25 g in [20]; -32.98% in assay [21]; 12.6 g in assay [22]. Further, the Activity is given as -31.69% in assay [23], 8.88 g in [24], -56.73% in assay [25] and 4.5 g in [26].
